The values below come from patent publication US20200131132A1, “FARNESOID X RECEPTOR AGONISTS AND USES THEREOF” (Metacrine, Inc., priority 2017, published 2020).

Some results are limits rather than exact numbers.

This test has as its target T1, hFXR (Homo sapiens, UniProt Q96RI1).
T1 construct: expressed in transfected cells; host or cells: CV-1 cells
T1 sequence (Q96RI1 1-486): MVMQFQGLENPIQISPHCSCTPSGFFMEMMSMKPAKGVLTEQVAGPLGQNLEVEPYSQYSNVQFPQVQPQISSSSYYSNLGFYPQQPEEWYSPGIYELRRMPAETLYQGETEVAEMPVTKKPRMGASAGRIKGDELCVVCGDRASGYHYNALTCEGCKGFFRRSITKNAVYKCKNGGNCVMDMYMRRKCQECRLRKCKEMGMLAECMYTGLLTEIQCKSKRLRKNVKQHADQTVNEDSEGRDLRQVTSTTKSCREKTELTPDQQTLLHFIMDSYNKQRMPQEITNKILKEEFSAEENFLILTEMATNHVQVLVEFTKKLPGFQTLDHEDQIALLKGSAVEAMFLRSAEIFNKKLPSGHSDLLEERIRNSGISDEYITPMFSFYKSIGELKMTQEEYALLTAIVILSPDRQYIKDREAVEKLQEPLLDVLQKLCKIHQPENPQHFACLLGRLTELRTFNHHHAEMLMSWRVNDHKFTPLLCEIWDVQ
T1 sequence (P19793 1-462 partner): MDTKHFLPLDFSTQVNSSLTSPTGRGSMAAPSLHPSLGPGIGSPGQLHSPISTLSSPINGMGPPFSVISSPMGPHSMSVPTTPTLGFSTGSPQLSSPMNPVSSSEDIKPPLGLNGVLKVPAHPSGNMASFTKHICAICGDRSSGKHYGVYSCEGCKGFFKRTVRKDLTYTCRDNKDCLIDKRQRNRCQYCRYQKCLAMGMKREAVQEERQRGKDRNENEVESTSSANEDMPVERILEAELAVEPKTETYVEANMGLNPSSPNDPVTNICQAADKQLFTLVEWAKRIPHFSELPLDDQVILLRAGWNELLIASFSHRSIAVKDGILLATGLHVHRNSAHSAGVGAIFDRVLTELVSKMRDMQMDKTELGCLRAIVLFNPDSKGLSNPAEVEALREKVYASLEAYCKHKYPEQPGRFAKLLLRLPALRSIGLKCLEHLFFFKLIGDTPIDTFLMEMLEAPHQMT
Nature of the test: In Vitro FXR Assay (TK). In kind it is cell-based. The conditions noted are these: CV-1 cells transfected with hFXR, hRXR, TK-ECRE-luc and pCMX-YFP; compounds incubated 18 hrs; luminescence. As for the experimental part: CV-1 cells were seeded at a density of 2,000,000 cells in a T175 flask with DMEM+10% charcoal double-stripped FBS and incubated at 37° C. in 5% CO2 for 18 h (O/N).
After 18 h of incubation, the medium in the T175 flask was changed with fresh DMEM+10% charcoal super-stripped serum. In a polypropylene tube, 2500 μL OptiMEM (Life Technologies, Cat #31985-062) was combined with expression plasmids for hFXR, hRXR, TK-ECRE-luc and pCMX-YFP. The tube was then briefly vortexed and incubated at room temperature for 5 minutes. Transfection reagent (X-tremeGENE HP from Roche, Cat #06 366 236 001) was added to the OptiMEM/plasmid mixture vortexed and incubated at room temperature for 20 minutes. Following incubation, the transfection reagent/DNA mixture complex was added to cells in the T175 flask and the cells were incubated at 37° C. in 5% CO2 for 18 h (O/N).
Compounds were serially diluted in DMSO and added to transfected CV-1 cells. The cells were then incubated for 18 hrs. The next day cells were lysed and examined for luminescence.
What is called EC50 is the concentration that produces a half-maximal response. For the molecule `COc1ccc2c(N(C[C@H]3CC[C@H](c4ccc(OC)c(C)c4)CC3)C(=O)CC(C)(C)C)nccc2c1` [Compound 1], the EC50 was no more than 1000 nM.
Next, `COc1ccc([C@H]2CC[C@H](CN(C(=O)CC(C)(C)C)c3nccc4cc(CO)ccc34)CC2)cc1C` [Compound 2, N-(6-(Hydroxymethyl)isoquinolin-1-yl)-N-((trans-4-(4-methoxy-3-methylphenyl)cyclohexyl)methyl)-3,3-dimethylbutanamide]: no more than 1000 nM.
Next, `COc1ccc(-c2ccc(CN(C(=O)CC(C)(C)C)c3nccc4cc(CO)ccc34)cc2)cc1C` [Compound 2.01, N-(6-(Hydroxymethyl)isoquinolin-1-yl)-N-((4′-methoxy-3′-methyl-[1,1′-biphenyl]-4-yl)methyl)-3,3-dimethylbutanamide]: no more than 1000 nM; `COc1ccc(-c2ccc(CN(C(=O)CC(C)(C)C)c3nccc4cc(COCCO)ccc34)cc2)cc1C` [Compound 2.02, N-(6-((2-Hydroxyethoxy)methyl)isoquinolin-1-yl)-N-((4′-methoxy-3′-methyl-[1,1′-biphenyl]-4-yl)methyl)-3,3-dimethylbutanamide]: no more than 1000 nM; `COc1ccc([C@H]2CC[C@H](CN(C(=O)CC(C)(C)C)c3nccc4cc(C)ccc34)CC2)cc1C` [Compound 3, N-((trans-4-(4-Methoxy-3-methylphenyl)cyclohexyl)methyl)-3,3-dimethyl-N-(6-methylisoquinolin-1-yl)butanamide]: no more than 1000 nM.
`COc1ccc(-c2ccc(CN(C(=O)CC(C)(C)C)c3nccc4cc(Br)ccc34)cc2)cc1C` [Compound 4, N-(6-Bromoisoquinolin-1-yl)-N-((4′-methoxy-3′-methyl-[1,1′-biphenyl]-4-yl)methyl)-3,3-dimethylbutanamide] came in with an EC50 of no more than 1000 nM.
For the molecule `COc1ccc(-c2ccc(CN(C(=O)CC(C)(C)C)c3ncnc4ccccc34)cc2)cc1C` [Compound 4.01, N-((4′-Methoxy-3′-methyl-[1,1′-biphenyl]-4-yl)methyl)-3,3-dimethyl-N-(quinazolin-4-yl)butanamide], the EC50 is 1000 to 10000 nM.
For `COc1ccc2c(N(Cc3ccc(-c4ccc(OC)c(C)c4)cc3)C(=O)CC(C)(C)C)nccc2c1` [Compound 4.02, N-((4′-Methoxy-3′-methyl-[1,1′-biphenyl]-4-yl)methyl)-N-(6-methoxyisoquinolin-1-yl)-3,3-dimethylbutanamide] the value was no more than 1000 nM.
With `COc1ccc(-c2ccc(CN(C(=O)CC(C)(C)C)c3nccc4c3CCCC4)cc2)cc1C` [Compound 4.03, N-((4′-Methoxy-3′-methyl-[1,1′-biphenyl]-4-yl)methyl)-3,3-dimethyl-N-(5,6,7,8-tetrahydroisoquinolin-1-yl)butanamide], the EC50 fell in the range of 1000 to 10000 nM.
For `COc1ccc(-c2ccc(CN(C(=O)CC(C)(C)C)c3nccc4ccsc34)cc2)cc1C` [Compound 4.04, N-((4′-Methoxy-3′-methyl-[1,1′-biphenyl]-4-yl)methyl)-3,3-dimethyl-N-(thieno[2,3-c]pyridine-7-yl)butanamide] the value was no more than 1000 nM.
For `COc1ccc(-c2ccc(CN(C(=O)CC(C)(C)C)c3nccc4sccc34)cc2)cc1C` [Compound 4.05, N-((4′-Methoxy-3′-methyl-[1,1′-biphenyl]-4-yl)methyl)-3,3-dimethyl-N-(thieno[3,2-c]pyridine-4-yl)butanamide] the value was no more than 1000 nM; for `COc1ccc(-c2ccc(CN(C(=O)CC(C)(C)C)c3nccc4ccc(Br)cc34)cc2)cc1C` [Compound 4.06, N-(7-Bromoisoquinolin-1-yl)-N-((4′-methoxy-3′-methyl-[1,1′-biphenyl]-4-yl)methyl)-3,3-dimethylbutanamide], no more than 1000 nM.
Next, `COc1ccc(-c2ccc(CN(C(=O)CC(C)(C)C)c3nccc4c(Br)cccc34)cc2)cc1C` [Compound 4.07, N-(5-Bromoisoquinolin-1-yl)-N-((4′-methoxy-3′-methyl-[1,1′-biphenyl]-4-yl)methyl)-3,3-dimethylbutanamide]: greater than 10000 nM; `COc1ccc(-c2ccc(CN(C(=O)CC(C)(C)C)c3ccnc4ccccc34)cc2)cc1C` [Compound 4.08, N-((4′-Methoxy-3′-methyl-[1,1′-biphenyl]-4-yl)methyl)-3,3-dimethyl-N-(quinolin-4-yl)butanamide]: greater than 10000 nM; `COc1ccc(-c2ccc(CN(C(=O)CC(C)(C)C)c3nccc4cccnc34)cc2)cc1C` [Compound 4.09, N-((4′-Methoxy-3′-methyl-[1,1′-biphenyl]-4-yl)methyl)-3,3-dimethyl-N-(1,7-naphthyridin-8-yl)butanamide]: no more than 1000 nM.
`COc1ccc(-c2ccc(CN(C(=O)CC(C)(C)C)c3cncc4ccccc34)cc2)cc1C` [Compound 5, N-(Isoquinolin-4-yl)-N-((4′-methoxy-3′-methyl-[1,1′-biphenyl]-4-yl)methyl)-3,3-dimethylbutanamide] showed an EC50 of 1000 to 10000 nM.
Next, `COc1ccc(-c2ccc(CN(C(=O)CC(C)(C)C)c3cccc4cnccc34)cc2)cc1C` [Compound 5.01, N-(Isoquinolin-5-yl)-N-((4′-methoxy-3′-methyl-[1,1′-biphenyl]-4-yl)methyl)-3,3-dimethylbutanamide]: greater than 10000 nM; `COc1ccc(-c2ccc(CN(C(=O)CC(C)(C)C)c3cccc4ccncc34)cc2)cc1C` [Compound 5.02, N-(Isoquinolin-8-yl)-N-((4′-methoxy-3′-methyl-[1,1′-biphenyl]-4-yl)methyl)-3,3-dimethylbutanamide]: greater than 10000 nM.
Take `COc1ccc(-c2ccc(CN(C(=O)CC(C)(C)C)c3nccc4cnccc34)cc2)cc1C` [Compound 5.03, N-((4′-Methoxy-3′-methyl-[1,1′-biphenyl]-4-yl)methyl)-3,3-dimethyl-N-(2,6-naphthyridin-1-yl)butanamide]: the concentration giving a half-maximal response (EC50) was in the range of 1000 to 10000 nM.
`COc1ccc(-c2ccc(CN(C(=O)CC(C)(C)C)c3nccc4ccncc34)cc2)cc1C` [Compound 5.04, N-((4′-Methoxy-3′-methyl-[1,1′-biphenyl]-4-yl)methyl)-3,3-dimethyl-N-(2,7-naphthyridin-1-yl)butanamide] displayed an EC50 of 1000 to 10000 nM.
For `COc1ccc(-c2ccc(CN(C(=O)CC(C)(C)C)c3nccc4cc(N5CCC(O)C5)ccc34)cc2)cc1C` (stereo not shown) [Compound 6, N-(6-(3-Hydroxypyrrolidin-1-yl)isoquinolin-1-yl)-N-((4′-methoxy-3′-methyl-[1,1′-biphenyl]-4-yl)methyl)-3,3-dimethylbutanamide] the value was no more than 1000 nM; for `COc1ccc(-c2ccc(CN(C(=O)CC(C)(C)C)c3nccc4cc(N(C)CCO)ccc34)cc2)cc1C` [Compound 6.01, N-(6-((2-Hydroxyethyl)(methyl)amino)iso-quinolin-1-yl)-N-((4′-methoxy-3′-methyl-[1,1′-biphenyl]-4-yl)methyl)-3,3-dimethylbutanamide], no more than 1000 nM.
Consider `COc1ccc(-c2ccc(CN(C(=O)CC(C)(C)C)c3nccc4cc(N(C)C)ccc34)cc2)cc1C` [Compound 6.1, N-(6-(Dimethylamino)isoquinolin-1-yl)-N-((4′-methoxy-3′-methyl-[1,1′-biphenyl]-4-yl)methyl)-3,3-dimethylbutanamide], for which the EC50 was no more than 1000 nM.
For `COc1ccc(-c2ccc(CN(C(=O)CC(C)(C)C)c3nccc4cc(N5CCC(O)C5)cnc34)cc2)cc1C` (stereo not shown) [Compound 6.2, N-(3-(3-Hydroxypyrrolidin-1-yl)-1,7-naphthyridin-8-yl)-N-((4′-methoxy-3′-methyl-[1,1′-biphenyl]-4-yl)methyl)-3,3-dimethylbutanamide] the value was no more than 1000 nM; for `COc1ccc(-c2ccc(CN(C(=O)CC(C)(C)C)c3nccc4cc(NCCO)ccc34)cc2)cc1C` [Compound 6.02, N-(6-((2-Hydroxyethyl)amino)isoquinolin-1-yl)-N-((4′-methoxy-3′-methyl-[1,1′-biphenyl]-4-yl)methyl)-3,3-dimethylbutanamide], no more than 1000 nM.
